The conditions of one data set: 24.0 °C.
Compound `CSSC` returned a log10 OH rate constant (cm³/molecule/s) of -9.64.

Staying with this data set, now noted: 25.0 °C.
With `C=O`, the log10 OH rate constant (cm³/molecule/s) was -11.

Compound `C=C(C)C(=O)OCCOCC` came in with a log10 OH rate constant (cm³/molecule/s) of -10.6.

Compound `C=CCCCOC(C)=O` yielded a log10 OH rate constant (cm³/molecule/s) of -10.4.

Consider `C1CC1`, for which the log10 OH rate constant (cm³/molecule/s) is -13.1.

As for `CCCC(=O)OCC`, the log10 OH rate constant (cm³/molecule/s) is -11.3.

`CCCCCCCO` displayed a log10 OH rate constant (cm³/molecule/s) of -10.9.

`COCC(Cl)Cl` returned a log10 OH rate constant (cm³/molecule/s) of -11.6.

Take `CCOC=CC(=O)OCC`: the log10 OH rate constant (cm³/molecule/s) was -10.5.

`CCCC(=O)OC` registered a log10 OH rate constant (cm³/molecule/s) of -11.5.

Regarding `C=CCCC(=C)C`, the log10 OH rate constant (cm³/molecule/s) was -10.

Take `CCCOC(=O)CCC`: the log10 OH rate constant (cm³/molecule/s) was -11.1.

The compound `CCC#N` gave a log10 OH rate constant (cm³/molecule/s) of -12.7.

Compound `CCCOCCC` came in with a log10 OH rate constant (cm³/molecule/s) of -10.7.

Compound `CCCOC(=O)CC` gave a log10 OH rate constant (cm³/molecule/s) of -11.4.

As to `C/C=C/C(C)C`, the log10 OH rate constant (cm³/molecule/s) was -10.2.

`CCCCOC=O`: the log10 OH rate constant (cm³/molecule/s) was -11.5.

Consider `CC(C)C(C)C(C)C`, for which the log10 OH rate constant (cm³/molecule/s) is -11.2.

Compound `O=CCl` displayed a log10 OH rate constant (cm³/molecule/s) of -12.5.

In turn, `Cl/C=C\Cl` had a log10 OH rate constant (cm³/molecule/s) of -11.6.

Turning to `CCOCCO`, the log10 OH rate constant (cm³/molecule/s) was -10.8.

The compound `C1=CC2CCC1CC2` had a log10 OH rate constant (cm³/molecule/s) of -10.4.

Consider `C=CC(=O)OCC`, for which the log10 OH rate constant (cm³/molecule/s) is -10.8.

`COCC(F)(F)F` yielded a log10 OH rate constant (cm³/molecule/s) of -12.2.

`C=CCC(=C)C` had a log10 OH rate constant (cm³/molecule/s) of -10.1.

Consider `COP(=O)(SC)SC`, for which the log10 OH rate constant (cm³/molecule/s) was -11.

As to `Cc1cccc(O)c1C`, the log10 OH rate constant (cm³/molecule/s) was -10.1.

With `Cc1cccc(C)c1O`, the log10 OH rate constant (cm³/molecule/s) was -10.2.

As for `CCCCOCC`, the log10 OH rate constant (cm³/molecule/s) was -10.7.

`CC(C)(C)CO[N+](=O)[O-]` gave a log10 OH rate constant (cm³/molecule/s) of -12.1.

In the case of `Clc1ccc(Cl)c(Cl)c1`, the log10 OH rate constant (cm³/molecule/s) is -12.3.

Compound `C=CCCC` displayed a log10 OH rate constant (cm³/molecule/s) of -10.5.

In turn, `CCCCCCCCCCCCCCC` displayed a log10 OH rate constant (cm³/molecule/s) of -10.7.

Consider `CC(=O)Cl`, for which the log10 OH rate constant (cm³/molecule/s) is -14.

Take `CC(C)OC(C)C`: the log10 OH rate constant (cm³/molecule/s) is -11.

As for `C=C(Cl)Cl`, the log10 OH rate constant (cm³/molecule/s) is -11.

`CCCOC=O`: the log10 OH rate constant (cm³/molecule/s) is -11.6.

`Cc1cc(C)cc(O)c1` displayed a log10 OH rate constant (cm³/molecule/s) of -9.95.

With `C=C(C)[C@H]1CC=C(C)CC1`, the log10 OH rate constant (cm³/molecule/s) was -9.77.

Compound `ClCC(Cl)Cl` displayed a log10 OH rate constant (cm³/molecule/s) of -12.7.

Take `CCCCCCCCCCC`: the log10 OH rate constant (cm³/molecule/s) was -10.9.

In turn, `CCCC[N+](=O)[O-]` had a log10 OH rate constant (cm³/molecule/s) of -11.8.

For the compound `C/C=C\C`, the log10 OH rate constant (cm³/molecule/s) was -10.2.

Turning to `Clc1ccccc1-c1ccccc1`, the log10 OH rate constant (cm³/molecule/s) is -11.5.

For the compound `CCCCCO`, the log10 OH rate constant (cm³/molecule/s) was -11.

In turn, `C=CCl` came in with a log10 OH rate constant (cm³/molecule/s) of -11.2.

As for `O=C1CCCC1`, the log10 OH rate constant (cm³/molecule/s) is -11.5.

In turn, `CC(C)O` yielded a log10 OH rate constant (cm³/molecule/s) of -11.3.

`CCC=C(C)C` displayed a log10 OH rate constant (cm³/molecule/s) of -10.1.

Compound `Cl/C=C\CCl` displayed a log10 OH rate constant (cm³/molecule/s) of -11.

With `COP(=O)(OC)SC`, the log10 OH rate constant (cm³/molecule/s) is -11.

For the compound `CC(F)(F)Cl`, the log10 OH rate constant (cm³/molecule/s) was -14.5.

In turn, `O=[N+]([O-])OC1CCCCC1` displayed a log10 OH rate constant (cm³/molecule/s) of -11.5.

`CCCCCOCCCCC` registered a log10 OH rate constant (cm³/molecule/s) of -10.5.

For `COCCBr`, the log10 OH rate constant (cm³/molecule/s) was -11.2.

On to `CC(Cl)(Cl)Cl`, for which the log10 OH rate constant (cm³/molecule/s) was -14.

As to `Fc1c(F)c(F)c(F)c(F)c1F`, the log10 OH rate constant (cm³/molecule/s) is -12.8.

`C#CCCCC`: the log10 OH rate constant (cm³/molecule/s) was -10.9.

In the case of `C=CC#N`, the log10 OH rate constant (cm³/molecule/s) is -11.4.

As for `C=CCC`, the log10 OH rate constant (cm³/molecule/s) is -10.5.

`CCCO` had a log10 OH rate constant (cm³/molecule/s) of -11.3.

With `COCCCl`, the log10 OH rate constant (cm³/molecule/s) was -11.3.

Take `CC(F)(F)C(F)(Cl)Cl`: the log10 OH rate constant (cm³/molecule/s) is -14.6.

On to `Nc1ccccc1`, for which the log10 OH rate constant (cm³/molecule/s) is -9.95.

Consider `CCc1ccccc1`, for which the log10 OH rate constant (cm³/molecule/s) is -11.1.

Take `CC(C)=O`: the log10 OH rate constant (cm³/molecule/s) was -12.7.

In the case of `COC=O`, the log10 OH rate constant (cm³/molecule/s) is -12.6.

`CCOC(=O)CC` returned a log10 OH rate constant (cm³/molecule/s) of -11.7.

`CCCCCCO` gave a log10 OH rate constant (cm³/molecule/s) of -10.9.

The compound `C1CC[C@H]2CCC[C@@H]2C1` (racemic) returned a log10 OH rate constant (cm³/molecule/s) of -10.8.

Take `FC(F)OCC(F)(F)F`: the log10 OH rate constant (cm³/molecule/s) was -13.9.

Regarding `Clc1cccc(-c2ccccc2)c1`, the log10 OH rate constant (cm³/molecule/s) was -11.3.

As to `CCCCOC(C)=O`, the log10 OH rate constant (cm³/molecule/s) was -11.3.

`CCOC(C)(C)C` showed a log10 OH rate constant (cm³/molecule/s) of -11.1.

`FC(Cl)C(F)(F)F` (configuration not stated): the log10 OH rate constant (cm³/molecule/s) was -14.

`CO` had a log10 OH rate constant (cm³/molecule/s) of -12.

Regarding `ClCC(Cl)(Cl)Cl`, the log10 OH rate constant (cm³/molecule/s) is -13.7.

As for `FCC(F)F`, the log10 OH rate constant (cm³/molecule/s) was -13.7.

The compound `CCCOCCO` showed a log10 OH rate constant (cm³/molecule/s) of -10.7.

Consider `C=C(C)CCC`, for which the log10 OH rate constant (cm³/molecule/s) is -10.2.

In turn, `C=CC` registered a log10 OH rate constant (cm³/molecule/s) of -10.6.

As for `CCC(C)=C(C)C`, the log10 OH rate constant (cm³/molecule/s) is -9.99.

Regarding `CCCCO`, the log10 OH rate constant (cm³/molecule/s) was -11.1.

For the compound `FC(F)F`, the log10 OH rate constant (cm³/molecule/s) is -15.5.

`FC(F)(Cl)CCl` displayed a log10 OH rate constant (cm³/molecule/s) of -13.8.

In turn, `CCC[N+](=O)[O-]` yielded a log10 OH rate constant (cm³/molecule/s) of -12.4.

Compound `CCOCCOC(=O)C(C)C` returned a log10 OH rate constant (cm³/molecule/s) of -10.9.

On to `COC`, for which the log10 OH rate constant (cm³/molecule/s) was -11.5.

In turn, `Cc1ccc(O)c(C)c1` gave a log10 OH rate constant (cm³/molecule/s) of -10.1.

`C[N+](=O)[O-]` returned a log10 OH rate constant (cm³/molecule/s) of -12.9.

Take `COC(F)(F)F`: the log10 OH rate constant (cm³/molecule/s) was -13.7.

Compound `FC(C(F)C(F)(F)C(F)(F)F)C(F)(F)F` (configuration not stated) showed a log10 OH rate constant (cm³/molecule/s) of -14.5.

`COC(=O)C(F)(F)F` displayed a log10 OH rate constant (cm³/molecule/s) of -13.3.

The compound `FC1C(F)(F)OC1(F)F` showed a log10 OH rate constant (cm³/molecule/s) of -14.6.

Compound `FCC(F)(F)F` had a log10 OH rate constant (cm³/molecule/s) of -14.3.

With `CC(C)CCO[N+](=O)[O-]`, the log10 OH rate constant (cm³/molecule/s) was -11.7.

In turn, `CCCCCOC(C)=O` showed a log10 OH rate constant (cm³/molecule/s) of -11.1.

For the compound `FC(F)OC(F)(F)F`, the log10 OH rate constant (cm³/molecule/s) is -14.5.

The compound `CC=CCC` yielded a log10 OH rate constant (cm³/molecule/s) of -10.2.

The compound `CC1=CCC2C(C1)C2(C)C` (configuration not stated) gave a log10 OH rate constant (cm³/molecule/s) of -10.1.

The compound `Cc1ccc(C)c(O)c1` gave a log10 OH rate constant (cm³/molecule/s) of -10.1.

For the compound `CC(C)(C)CO`, the log10 OH rate constant (cm³/molecule/s) is -11.3.

On to `CCCC(C)C`, for which the log10 OH rate constant (cm³/molecule/s) was -11.3.

`COC(C)(C)C` gave a log10 OH rate constant (cm³/molecule/s) of -11.5.

`ClCCCl` returned a log10 OH rate constant (cm³/molecule/s) of -12.6.

Compound `C1=CCCC1` yielded a log10 OH rate constant (cm³/molecule/s) of -10.2.

For the compound `CCOP(=O)(OCC)OCC`, the log10 OH rate constant (cm³/molecule/s) was -10.3.

`ClCC(Br)CBr` (configuration not stated) came in with a log10 OH rate constant (cm³/molecule/s) of -12.4.

`C=CC/C=C/C`: the log10 OH rate constant (cm³/molecule/s) was -10.

For `CC(=O)OC(C)(C)C`, the log10 OH rate constant (cm³/molecule/s) is -12.3.

Compound `CCCCOCCCC` yielded a log10 OH rate constant (cm³/molecule/s) of -10.5.

Consider `C1=CCCCCC1`, for which the log10 OH rate constant (cm³/molecule/s) was -10.1.

In the case of `COP(=O)(OC)OC`, the log10 OH rate constant (cm³/molecule/s) is -11.1.

`Cc1ccc(O)cc1C`: the log10 OH rate constant (cm³/molecule/s) is -10.1.

`FC(F)(F)C(Cl)Cl`: the log10 OH rate constant (cm³/molecule/s) is -13.4.

Take `CCCCCCC(C)=O`: the log10 OH rate constant (cm³/molecule/s) was -11.

With `CC(C)(C)OC=O`, the log10 OH rate constant (cm³/molecule/s) was -12.1.

The compound `CC1=CCC2CC1C2(C)C` (configuration not stated) yielded a log10 OH rate constant (cm³/molecule/s) of -10.3.

`CCCCCO[N+](=O)[O-]`: the log10 OH rate constant (cm³/molecule/s) is -11.5.

As to `CCC1CO1` (configuration not stated), the log10 OH rate constant (cm³/molecule/s) was -11.7.

Regarding `CCCCOC`, the log10 OH rate constant (cm³/molecule/s) is -10.8.

With `CC(Cl)Cl`, the log10 OH rate constant (cm³/molecule/s) is -12.6.
